Where a name gives a salt, the structure may show the parent alone.
Target: T1, recombinant IRAK-4 kinase (Homo sapiens, UniProt Q9NWZ3)
T1 construct: purchased Millipore, USA
T1 sequence (Q9NWZ3 1-460): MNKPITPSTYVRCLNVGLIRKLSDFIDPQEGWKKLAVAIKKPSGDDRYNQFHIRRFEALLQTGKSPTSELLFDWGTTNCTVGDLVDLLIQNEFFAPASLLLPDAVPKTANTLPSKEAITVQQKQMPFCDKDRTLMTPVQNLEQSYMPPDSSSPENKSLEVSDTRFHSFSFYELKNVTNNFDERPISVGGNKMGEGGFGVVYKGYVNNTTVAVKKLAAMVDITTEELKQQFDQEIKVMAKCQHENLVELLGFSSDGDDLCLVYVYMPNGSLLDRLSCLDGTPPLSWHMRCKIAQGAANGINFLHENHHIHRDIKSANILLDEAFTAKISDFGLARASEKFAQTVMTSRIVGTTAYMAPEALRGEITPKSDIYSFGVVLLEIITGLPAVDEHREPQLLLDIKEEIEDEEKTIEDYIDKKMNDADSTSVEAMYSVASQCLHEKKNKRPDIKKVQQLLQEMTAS
Assay: IRAK-4 Biochemical Assay (TR-FRET)
Conditions: 30 min pre-incubation, 100 nM Biotin Histone H3, 20 μM ATP, read-out: IC50 values for IRAK4 activity

| IC50 [nM] | Compound |
| --- | --- |
| < 50 | Cc1cc(-c2nc(C(=O)Nc3cc4cn(C)nc4cc3N3CCCCC3)co2)cc(C)n1 [Example 119, 2-(2,6-dimethylpyridin-4-yl)-N-(2-methyl-6-(piperidin-1-yl)-2H-indazol-5-yl)oxazole-4-carboxamide hydrochloride] |
| < 50 | CN(C)c1cc(-c2nc(C(=O)Nc3cc4cn(C)nc4cc3N3CCCCC3)co2)ccn1 [Example 120, 2-(2-(dimethylamino)pyridin-4-yl)-N-(2-methyl-6-(piperidin-1-yl)-2H-indazol-5-yl)oxazole-4-carboxamide hydrochloride] |
| < 50 | CNc1cc(-c2nc(C(=O)Nc3cc4cn(C)nc4cc3N3CCCCC3)co2)ccn1 [Example 122, N-(2-methyl-6-(piperidin-1-yl)-2H-indazol-5-yl)-2-(2-(methylamino)pyridin-4-yl)oxazole-4-carboxamide hydrochloride] |
| < 50 | Cn1cc2cc(NC(=O)c3coc(-c4ccnc(NS(C)(=O)=O)c4)n3)c(N3CCC(O)CC3)cc2n1 [Example 123, N-(6-(4-hydroxypiperidin-1-yl)-2-methyl-2H-indazol-5-yl)-2-(2-(methylsulfonamido)pyridin-4-yl) oxazole-4-carboxamide] |
| < 50 | Cc1cc(-c2nc(C(=O)Nc3cc4cn(C)nc4cc3N3CCC(O)CC3)co2)cc(C)n1 [Example 126, 2-(2,6-dimethylpyridin-4-yl)-N-(6-(4-hydroxypiperidin-1-yl)-2-methyl-2H-indazol-5-yl) oxazole-4-carboxamide] |

| Compound | IC50 [nM] |
| --- | --- |
| CCOP(=O)(OCC)OC1CCN(c2cc3c(cnn3C)cc2NC(=O)c2coc(-c3ccnc(C)c3)n2)CC1 [Example 128, Diethyl (1-(1-methyl-5-(2-(2-methylpyridin-4-yl)oxazole-4-carboxamido)-1H-indazol-6-yl)piperidin-4-yl) phosphate] | 50 to 100 |
| CCOP(=O)(OCC)OCC1CCN(c2cc3nn(C)cc3cc2NC(=O)c2coc(-c3ccnc(C)c3)n2)CC1 [Example 129, Diethyl ((1-(2-methyl-5-(2-(2-methylpyridin-4-yl)oxazole-4-carboxamido)-2H-indazol-6-yl)piperidin-4-yl)methyl) phosphate] | < 50 |

Source: US10160753B2, “Indazole compounds as IRAK4 inhibitors” (Aurigene Discovery Technologies Limited, priority 2014, dated 2018)
